Where a name gives a salt, the structure may show the parent alone.
Experiments:
MCH1 receptor [1] = target: T1, MCH1 receptor (Rattus norvegicus, UniProt P97639); experiment: Displacement of [125I]-Tyr-S36057 binding to MCH1 receptors, rat brain membrane preparations; settings: in rats, brain membranes, read-out: IC50 (concentration that inhibits 50% of the specific binding)
T1 construct: from tissue; host or cells: rat brain membranes
Protocol: (§1) The measurement of the affinity of the compounds of the invention for the MCH receptors was performed by studying the displacement of the binding of a radiolabelled derivative of MCH to the MCH1 receptors. This study was performed on rat and/or mouse brain membrane preparations according to the protocol described below.
(§2) In anticipation of the binding studies, the brains are diluted in HEPES buffer 25 mM (pH: 7.4) containing MgCl2 5 mM, CaCl2 1 mM, homogenized using a Polytron blender for 3 times 20 seconds (speed 25), and are then ultracentrifuged at 22000 rpm and at +4° C. for 30 minutes. The centrifugation pellet is taken up in the same buffer and the membranes are divided into aliquots and stored frozen at −80° C. until the time of use. The membranes are warmed to room temperature and then incubated in the presence of the test compounds, and of […] of an MCH-based radiolabelled molecule, [^125I]-Tyr-S36057 (8-amino-3,6-dioxyoctanoyl MCH 6-17 sold by Perkin-Elmer), in HEPES buffer 25 mM (pH: 7.4) containing MgCl2 5 mM, CaCl2 1 mM, bacitracin 140 mg/L, phenanthroline 1 mM and 0.2% bovine serum albumin. […] The radioactivity retained on the filters is measured using a Gamma scintillation counter. The non-specific binding is determined in the presence of 1 μM of non-radiolabelled S36057. […]

MCH1 receptor [2] = target: T2, MCH1 receptor (Mus musculus, UniProt Q8JZL2); experiment: Displacement of [125I]-Tyr-S36057 binding to MCH1 receptors, mouse brain membrane preparations; settings: in mice, brain membranes, read-out: IC50 (concentration that inhibits 50% of the specific binding)
T2 construct: from tissue; host or cells: mouse brain membranes
Protocol: as §1, §2

T1 sequence (P97639 whole entry): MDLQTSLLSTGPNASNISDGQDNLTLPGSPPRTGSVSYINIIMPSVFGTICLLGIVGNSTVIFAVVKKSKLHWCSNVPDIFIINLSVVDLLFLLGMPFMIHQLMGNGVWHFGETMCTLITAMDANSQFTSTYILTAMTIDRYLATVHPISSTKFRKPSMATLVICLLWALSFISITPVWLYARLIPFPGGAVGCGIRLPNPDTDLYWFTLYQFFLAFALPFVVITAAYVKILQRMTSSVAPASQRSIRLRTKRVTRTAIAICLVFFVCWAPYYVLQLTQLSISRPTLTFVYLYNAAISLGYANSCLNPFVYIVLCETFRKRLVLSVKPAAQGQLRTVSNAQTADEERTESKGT
T2 sequence (Q8JZL2 whole entry): as the sequence (P97639 whole entry) above, with T5A, L24F, P27A, S29P, G34R, T138A counted along it

| SMILES | IC50 (MCH1 receptor [1]) | IC50 (MCH1 receptor [2]) |
| --- | --- | --- |
| COc1ccc2c(C3CCN(Cc4ccccc4)CC3)nnc(NC3CCN(Cc4ccc5c(c4)OCO5)CC3)c2c1 [Example 1, N-[1-(1,3-Benzodioxol-5-ylmethyl)piperidin-4-yl]-4-(1-benzylpiperidin-4-yl)-7-methoxyphthalazin-1-amine Trihydrochloride] | 0.5 nM | 0.2 nM |
| COc1ccc(-c2nnc(NC3CCN(Cc4ccc(OCCCN(C)C)cc4)CC3)c3cc(OC)ccc23)cc1 [Example 3, N-(1-[{4-[3-(Dimethylamino)propoxy]benzyl}piperidin-4-yl)-7-methoxy-4-(4-methoxy-phenyl)phthalazin-1-aminetrihydrochloride] | 52 nM | 38 nM |

— patent US20090124624A1, “SUBSTITUTED 1-AMINOPHTHALAZINE DERIVATIVES, PREPARATION THEREOF AND THERAPEUTIC APPLICATION THEREOF” (SANOFI-AVENTIS, priority 2005, published 2009)
